In patent publication US20250057756A1, “FORMULATIONS AND DOSES OF PEGYLATED URICASE” (Cartesian Therapeutics, Inc., priority 2016, published 2025):
Several values for one entry are separate records, joined by “and”; a condition that tells them apart may be missing. Equal values may be shown once. Read-outs that look alike come from different tables or passages of the source.

Columns and labels:
[1] = system: uricase specific ADAs; assay: Phase 1a clinical trial: uricase specific ADAs; type: in vivo, human; details: single infusion; varying levels
Method: (§1) The Phase 1a clinical trial for SEL 212 was an ascending dose trial of pegsiticase alone in 22 subjects with elevated serum uric acid levels greater than 6 mg/dl who were separated into five cohorts. Each cohort received a single intravenous infusion of pegsiticase at the following dose levels of 0.1 mg/kg for Cohort #1, 0.2 mg/kg for Cohort #2, 0.4 mg/kg for Cohort #3, 0.8 mg/kg for Cohort #4 and 1.2 mg/kg for Cohort #5. Dosing began with the lowest dose and only after an entire cohort was safely dosed was the next cohort started. The subjects were monitored during a 30 day period post infusion with visits occurring on day 7, 14,21 and the end of trial visit on day 30. Blood and serum of each patient was evaluated for serum uric acid, ADAs (specifically anti-peg, anti-uricase and anti-pegsiticase) and safety parameters.
The serum uric acid levels were measured at baseline and days seven, 14, 21 and 30 and uricase specific ADA levels at baseline and days seven, 14 and 30 following a single intravenous injection of pegsiticase. Uricase specific ADA levels at day 21 in the Phase 1a clinical trial were not measured. […]

[2] = system: serum uric acid; assay: Phase 1b clinical trial: serum uric acid; type: in vivo, human
Method: (§2) The Phase 1b clinical trial enrolled 63 patients with serum uric acid levels greater than 6 mg/dl separated into 11 cohorts. A single intravenous infusion of SVP Rapamycin alone at the following ascending dose levels was administered to four cohorts in ascending order. Each cohort consisted of seven patients and were designated as follows: Cohort #1 (0.03 mg/kg), Cohort #3 (0.1 mg/kg), Cohort #5 (0.3 mg/kg) and Cohort #7 (0.5 mg/kg) collectively the SVP Rapamycin Cohorts. After a cohort of the SVP-Rapamycin alone had successfully and safely been dosed the corresponding dose level of SVP Rapamycin was combined with a fixed dose of pegsiticase (0.4 mg/kg). The combination was co-administered sequentially as a single intravenous infusion, with the SVP Rapamycin infusion preceding the pegsiticase infusion. […] The subjects were monitored during a 30 day period post infusion with visits occurring on day 7, 14,21 and the end of trial visit on day 30. Blood and serum of each patient was evaluated for serum uric acid, ADAs (specifically anti-PEG, anti-uricase and anti-pegsiticase) and safety parameters. […]

[3] = Phase 1a and Phase 1b clinical trials: safety and tolerability; type: in vivo, human; details: 85 subjects dosed in Phase 1a and Phase 1b
Method: as §1
The Phase 1b clinical trial enrolled 63 patients with serum uric acid levels greater than 6 mg/dl separated into 11 cohorts. A single intravenous infusion of SVP Rapamycin alone at the following ascending dose levels was administered to four cohorts in ascending order. […] The subjects were monitored during a 30 day period post infusion with visits occurring on day 7, 14,21 and the end of trial visit on day 30. Blood and serum of each patient was evaluated for serum uric acid, ADAs (specifically anti-PEG, anti-uricase and anti-pegsiticase) and safety parameters. […]

[4] = system: serum uric acid; assay: Phase 1a clinical trial: serum uric acid; type: in vivo, human
Method: as §1
FIG. 4 depicts average serum uric acid levels of the Phase 1a clinical trial's five cohorts tested at different measurement intervals (Day 7, 14, 21 and 30) during the course of the 30 day period following the single intravenous infusion of pegsiticase at the outset of the trial.
The serum uric acid levels were measured at baseline and days seven, 14, 21 and 30 and uricase specific ADA levels at baseline and days seven, 14 and 30 following a single intravenous injection of pegsiticase. Uricase specific ADA levels at day 21 in the Phase 1a clinical trial were not measured. Based on the results from the Phase 1a clinical trial, it was observed that pegsiticase at a tolerated dose is capable of achieving and maintaining a reduction of serum uric acid below the target of 6 mg/dl for a 30 day period in the absence of inhibitory uricase specific ADAs.

[5] = system: uricase specific ADAs; assay: Phase 1b clinical trial: uricase specific ADAs; type: in vivo, human; details: pegsiticase alone 0.4 mg/kg, Cohort #3 Phase 1a and Cohort #9 Phase 1b; resulting in return to baseline serum uric acid
Method: as §2
In the Phase 1a clinical trial, uricase specific ADA levels at day 21 was not measured. […] As a result, for the Phase 1b clinical trial, uricase specific ADA levels at day 21 were monitored.

[6] = Phase 1a clinical trial: safety; type: in vivo, human; details: single intravenous infusion, five dose levels 0.1-1.2 mg/kg
Method: as §1

[7] = Gout flare in first month, pegsiticase alone (Phase 1, Table 1); type: in vivo, human
Method: as §1
When pegsiticase was administered alone in the Phase 1 described in Example 2, 57% (4 out of 7 patients) of those with a history of gout had signs of gout flare in the first month after receiving the study drug (Table 1). […] This subject was in the cohort that received only the rapamycin-comprising nanocarrier (without uricase). […] The flare was, therefore, unrelated to a change in serum uric acid. […] This patient's serum uric acid level dropped from 8.8 mg/dL to 0.1 mg/dL within 90 minutes following drug administration. So, although this subject had only been diagnosed with asymptomatic hyperuricemia before the study, a flare did seem to coincide with a drop in serum uric acid.

[8] = system: uric acid; assay: Uric acid levels in uricase deficient mice; type: in vivo
Method: (§3) A pharmacology study in mice that were genetically deficient in endogenous uricase was conducted. The study evaluated the efficacy of a dose regimen consisting of three immunizations with SEL 212 followed by doses of pegsiticase alone in preventing the formation of ADAs to pegsiticase. The treatment period consisted of the first 14 days of the study. In the study, mice were separated into three treatment groups. During the treatment period: • the first group, referred to as the Untreated Group, received no treatment; • the second group, referred to as the Pegsiticase Group, was treated with pegsiticase alone; and • the third group, referred to as the SVP Rapamycin+Pegsiticase Group, was treated with SVP Rapamycin co administered with pegsiticase.
(§4) The Pegsiticase Group and SVP Rapamycin+Pegsiticase Group were treated on days zero, seven and 14 of the treatment period. Each group was then treated with pegsiticase alone on days 35 and 42 of the study, or the challenge period. Uricase specific ADA levels were recorded to determine the formation of ADAs to pegsiticase. Uric acid levels were measured to determine effectiveness of SVP Rapamycin co administered with pegsiticase in lowering uric acid levels below 6 mg/dl, which is the treatment target for gout patients.

[9] = system: uricase specific ADAs; assay: Uricase specific ADA formation in uricase deficient mice; type: in vivo; details: treated days 0, 7 and 14, pegsiticase alone challenge days 35 and 42
Method: as §3, §4

[10] = system: serum uric acid (SUA); details: cited from earlier work
[11] = cited from earlier work; for patients with gout flares requiring treatment in a month: colchicine prophylaxis
[12] = cited from earlier work; for subjects requiring treatment for at least one gout flare: first 8 weeks, with gout flare prophylaxis
[13] = system: ADAs; details: all KRYSTEXXA-treated subjects; cited from earlier work
[14] = system: uric acid; details: cited from earlier work; for mean uric acid levels at four weeks: monthly dosing
[15] = cited from earlier work; for flares per patient over the first 3 months: Phase 3; for Flares per patient month: Phase 3 trials

## Recombinant Pegylated Candida Urate Oxidase [pegsiticase]
[1]
  uricase specific ADAs: induced uricase specific ADAs in all subjects
[2]; Cohort #9: pegsiticase alone 0.4 mg/kg
  subjects returned to baseline serum uric acid levels by day 30: four of the five
[2]; pegsiticase alone 0.4 mg/kg, Cohort #3 Phase 1a and Cohort #9 Phase 1b, initial control, enzyme activity lost past day 14
  serum uric acid levels: below 6 mg/dL
[3]
  tolerability: well tolerated
[4]; each cohort, depending on the dose level
  time average serum uric acid levels sustained below 6 mg/dl: 14 to 30 days
[4]; single intravenous infusion, all 22 subjects
  time within which serum uric acid levels dropped significantly: approximately 10 hours
[4]; single intravenous infusion, majority of patients
  time after dosing by which serum uric acid levels rebounded: 14 to 21 days
[5]
  uricase specific ADA formation: uricase specific ADA formation at day 14
[6]
  serious adverse events: no serious adverse events
  tolerability: well tolerated
[7]; individual subject with history of gout, SEL-037 0.8 mg/kg
  Flare in 1st month: no
[7]; individual subjects with history of gout, SEL-037 0.1 mg/kg, 0.1 mg/kg
  Flare in 1st month: no and yes (2×) and yes (positive for
[7]; individual subjects with history of gout, SEL-037 0.2 mg/kg, 0.2 mg/kg
  Flare in 1st month: no and yes (mild gout, right
[7]; pegsiticase alone, Phase 1, 4 out of 7 patients
  subjects with a history of gout with signs of gout flare in the first month: 57%
[8]; after the first dose in the treatment period
  uric acid levels: below 6 mg/dl
[8]; subsequent doses in the treatment period and challenge period
  uric acid levels: > 6 mg/dL
[9]
  uricase specific ADA formation: developed uricase specific ADAs

## O=C(O)CSc1nnc(Br)n1-c1ccc(C2CC2)c2ccccc12 [Lesinurad, lesinurad]
[10]; Lesinurad 200 mg/day
  Time of efficacy (area under curve of mean sUA levels over time): 158.5
[10]; Lesinurad 400 mg/day
  Time of efficacy (area under curve of mean sUA levels over time): 165.8
[10]; Lesinurad 600 mg/day
  Time of efficacy (area under curve of mean sUA levels over time): 167.5
[11]; 200 mg daily
  patients with gout flares requiring treatment in a month: 10 out of 46
[11]; 200 mg/day
  Flares per patient month: 0.22 flares per patient month
[11]; 400 mg daily
  patients with gout flares requiring treatment in a month: 13 out of 42
[11]; 400 mg/day
  Flares per patient month: 0.31 flares per patient month
[11]; 600 mg daily
  patients with gout flares requiring treatment in a month: 15 out of 48
[11]; 600 mg/day
  Flares per patient month: 0.31 flares per patient month

## Cc1nc(-c2ccc(OCC(C)C)c(C#N)c2)sc1C(=O)O [Febuxostat, febuxostat]
[12]; 80 mg/day
  Flares per patient month: 0.77 flares per patient month
  subjects requiring treatment for at least one gout flare: 55 out of 255
[12]; 80 mg/day, listed as febuxostat
  Flares per patient month: at least 0.22 flares per patient month
[12]; 120 mg/day
  Flares per patient month: 0.36 flares per patient month
  subjects requiring treatment for at least one gout flare: 90 out of 250
[12]; 120 mg/day, listed as febuxostat
  Flares per patient month: ≥ 0.36 flares per patient month

## Pegloticase
[10]; Pegloticase biweekly, Nonresponders
  Time of efficacy (area under curve of mean sUA levels over time): Nonresponders-84.35
[10]; Pegloticase biweekly, Responders
  Time of efficacy (area under curve of mean sUA levels over time): Responders-26.6
[10]; Pegloticase monthly, Nonresponders
  Time of efficacy (area under curve of mean sUA levels over time): Nonresponders-99.75
[10]; Pegloticase monthly, Responders
  Time of efficacy (area under curve of mean sUA levels over time): Responders-53.55
[13]
  treated subjects that developed ADAs: 89%
[14]; monthly dosing cohorts
  non-responders, share of subjects: 65%
  subjects classified as responders (uric acid below 6 mg/dl for 80% of the time at months three and six): 35%
[14]; non-responders
  mean uric acid levels at four weeks: above 6 mg/dl
[14]; responders
  mean uric acid levels at four weeks: above 4 mg/dl
[15]; biweekly pegloticase, 85 patients
  flares per patient over the first 3 months: 2.3
[15]; monthly pegloticase, 84 patients
  flares per patient over the first 3 months: 2.7
[15]; pegloticase biweekly
  Flares per patient month: 0.77 flares per patient month
[15]; pegloticase monthly
  Flares per patient month: 0.90 flares per patient month
[15]; pegloticase monthly, listed as pegloticase
  Flares per patient month: 0.9 flares per patient month
[15]; phase 2 trial, three-month study
  study subjects reporting one or more flares: 88%
[15]; two phase 3 trials, despite gout flare prophylaxis (colchicine or NSAIDs)
  patients with gout flares in the first 3 months: about 80%
